Data from patent US20230202997A1, “CHROMANOL, QUINONE OR HYDROQUINONE COMPOUNDS FOR TREATMENT OF SEPSIS” (Sulfateq B.V., priority 2020, published 2023).

How the values were obtained:
[1] = tested on: IL-6 mRNA expression; assay: Inhibition of LPS-induced IL-6 mRNA expression in NRK52E; format: cell-based, Rat; conditions: 10 μM for 30 min, then LPS 24 hours
Procedure: (§1) Rat kidney epithelial cells (ATCC #CRL-1571) were maintained in DMEM medium containing 10% fetal bovine serum, and 1% Penicillin-Streptomycin solution (Sigma-Aldrich). NRK52E cells were passaged by trypsinization when the cultures reached a confluency of 70%. For all experiments, NRK52E cells were seeded at 0.6·10^5 cells/cm^2 and allowed to adhere for 24 hours.
(§2) HUVEC and NRK52E cells were pre-incubated with SUL compounds (10 μM) for 30 min and subsequently exposed to LPS for 24 hours under standard culture conditions. Cells were lysed in triZOL reagens (Invitrogen) and total RNA isolated according to manufacturers' instruction. 1 μg total RNA per sample was reverse transcribed using the FirstAid Reverse Transcription Kit (ThermoFisher). Copy-DNA equivalents of 5 ng total RNA were amplified on a ViiA7 Real-time PCR system (ThermoFisher, Waltham, Mass.) using iTaq Universal SYBR Green Supermix (Bio-Rad, Hercules, Calif.) and primers specific for tumor necrosis factor alpha, interleukin 1 beta, interleukin-6 and beta actin as loading control. Amplification was performed for 40 cycles of 95° C. for 30 s, 60° C. for 1 min. Relative mRNA expression was calculated as 2^−(Cq^gene^−Cq^reference^) and normalized to unstimulated control cells (100% inhibition) and vehicle-treated and LPS exposed cells (0% inhibition). The following primers were used: […]

[2] = tested on: IL-1β mRNA expression; assay: Inhibition of LPS-induced IL-1β mRNA expression in NRK52E; format: cell-based, Rat; conditions: 10 μM for 30 min, then LPS 24 hours
Procedure: as §1, §2

[3] = tested on: TNFα mRNA expression; assay: Inhibition of LPS-induced TNFα mRNA expression in NRK52E; format: cell-based, Rat; conditions: 10 μM for 30 min, then LPS 24 hours
Procedure: as §1, §2

[4] = tested on: IL-1β mRNA expression; assay: Inhibition of LPS-induced IL-1β mRNA expression in HUVEC; format: cell-based, Human; conditions: 10 μM for 30 min, then LPS 24 hours
Procedure: (§3) Human Umbilical Cord Endothelial Cells (HUVEC, Lonza CC-2519) were maintained on 1% gelatin-coated culture flasks in RPMI1640 medium containing 20% fetal bovine serum, 2 mM Glutamine (Sigma-Aldrich), 1% Penicillin-Streptomycin solution (Sigma-Aldrich) and 50 μg/ml Bovine Pituitary Extract (Invitrogen). HUVEC were passaged by trypsinization when the cultures reach a confluency of 70%. For all experiments, HUVEC were seeded at 0.6·10^5 cells/cm^2 and allowed to adhere for 24 hours.
as §2

[5] = tested on: TNFα mRNA expression; assay: Inhibition of LPS-induced TNFα mRNA expression in HUVEC; format: cell-based, Human; conditions: 10 μM for 30 min, then LPS 24 hours
Procedure: as §3, §2

[6] = tested on: IL-6 mRNA expression; assay: Inhibition of LPS-induced IL-6 mRNA expression in HUVEC; format: cell-based, Human; conditions: 10 μM for 30 min, then LPS 24 hours
Procedure: as §3, §2

[7] = tested on: NO production in HUVEC; assay: Endothelial NO production (nitrate in conditioned medium), basal and after LPS; format: cell-based, Human
Procedure: as §3
Cellular production of NO was approximated by measuring nitrate concentrations in culture media using the Measure-IT™ High-Sensitivity Nitrite Assay Kit (#M36051, ThermoFisher) according to manufacturer's instructions. […] Therefore, nitrate concentrations in conditioned media are a good approximate to assess cellular NO production. 50 μl conditioned medium derived from a single 96-wells plate well was used per assay and normalized against protein concentration. All experiments were performed in quadruplicate.
Endotoxins suppress endothelial NO production by limiting the activity of eNOS. HUVEC were pre-treated with vehicle (DMSO), BN-80933, SUL-138, or SUL-150 or (all 10 μM) prior to endotoxin (LPS 100 ng/ml) exposure for 24 hours. The nitrate levels in the conditioned medium from endothelial cells exposed to LPS averaged at 160 pmol/mg protein (˜33% reduction versus non LPS exposed HUVEC, p=0.002), which was lower than basal control levels. BN-80933 further suppressed the nitrate levels in the conditioned medium (FIG. 7A) to an average of 90 pmol/mg protein (p=0.008).

[8] = tested on: NO production in RAW264.7 macrophages; assay: Macrophage NO production (nitrate in conditioned medium), basal and after LPS; format: cell-based, Mouse
Procedure: Mouse macrophage RAW264.7 cells (ATCC #TIB-71) were maintained in DMEM medium containing 10% fetal bovine serum, and 1% Penicillin-Streptomycin solution (Sigma-Aldrich). […] For all experiments, RAW264.7 cells were seeded at 0.5·10^5 cells/cm^2 and allowed to adhere for 24 hours. Cellular production of NO was approximated by measuring nitrate concentrations in culture media using the Measure-IT™ High-Sensitivity Nitrite Assay Kit (#M36051, ThermoFisher) according to manufacturer's instructions. […] Therefore, nitrate concentrations in conditioned media are a good approximate to assess cellular NO production. 50 μl conditioned medium derived from a single 96-wells plate well was used per assay and normalized against protein concentration. All experiments were performed in quadruplicate. LPS induces macrophage NO production by activating iNOS. RAW264.7 macrophages were pre-treated with vehicle (DMSO), BN-80933, SUL-138, or SUL-150 or (all 10 μM) prior to endotoxin (LPS 100 ng/ml) exposure for 24 hours. The nitrate levels in the conditioned medium from LPS exposed RAW264.7 macrophages averaged at 83 pmol/mg protein (˜16-fold increase versus non-exposed RAW264.7 cells, p=0.001).

[9] = tested on: IL-6 mRNA expression; assay: Endothelial inflammatory activation after endotoxin, IL-6 mRNA (Example 5); format: cell-based, Human; conditions: HUVEC; 10 μM for 30 min
Procedure: as §3
(§4) HUVEC cells were lysed in triZOL reagens (Invitrogen) and total RNA isolated according to manufacturers' instruction. 1 μg total RNA per sample was reverse transcribed using the FirstAid Reverse Transcription Kit (ThermoFisher). Copy-DNA equivalents of 5 ng total RNA were amplified on a ViiA7 Real-time PCR system (ThermoFisher, Waltham, Mass.) using iTaq Universal SYBR Green Supermix (Bio-Rad, Hercules, Calif.) and primers specific for tumor necrosis factor alpha (TNFα; sense 5′-[…]-3′, antisense 5′-[…]-3′), interleukin 1 beta (IL-1β; sense 5′-[…]-3′, antisense 5′-[…]-3′), interleukin-6 (IL-6; sense 5′-[…]-3′, antisense 5′-[…]-3′) and beta actin (ACTB; sense 5′-[…]-3′, antisense 5′-[…]-3′) as loading control. Amplification was performed for 40 cycles of 95° C. for 30 s, 60° C. for 1 min. Relative mRNA expression was calculated according to the δδCt-method.

[10] = tested on: mitochondrial oxidative stress in HUVEC; assay: LPS-induced mitochondrial superoxide in HUVEC (MitoSox); format: cell-based, Human; conditions: 10 μM for 30 min, LPS 100 ng/ml 24 hours
Procedure: as §3
(§5) The production of cellular and mitochondrial oxidative stress was measured using fluorescent probes for cellular and mitochondrial superoxide, i.e. dihydroethidium (DHE) and MitoSox (ThermoFisher), respectively. HUVEC were incubated with BN-80933, SUL-138 or SUL-150 (all 10 μM) for 30 min. Next, HUVEC were exposed to LPS (100 ng/ml) for an additional 24 hours. In the final hour of incubation, 2.5 μM of DHE or MitoSox was applied to each sample. HUVEC were washed in PBS and fixed in 4% paraformaldehyde at room temperature for 15 min. Nuclear staining was performed by 5 μM […] (DAPI) and fluorescence intensity of the samples was recorded in a CLARIOStar Plus plate reader (BMG Labtech) equipped with the appropriate filter sets. Fluorescence recordings for DHE and MitoSox were corrected for DAPI fluorescence. All experiments were performed in quadruplicate.

[11] = tested on: TNFα mRNA expression; assay: Endothelial inflammatory activation after endotoxin, TNFα mRNA (Example 5); format: cell-based, Human; conditions: HUVEC; 10 μM for 30 min
Procedure: as §3, §4

[12] = tested on: cytoplasmic oxidative stress in HUVEC; assay: LPS-induced cellular superoxide in HUVEC (DHE); format: cell-based, Human; conditions: 10 μM for 30 min, LPS 100 ng/ml 24 hours
Procedure: as §3, §5

[13] = tested on: IL-1β mRNA expression; assay: Endothelial inflammatory activation after endotoxin, IL-1β mRNA (Example 5); format: cell-based, Human; conditions: HUVEC; 10 μM for 30 min
Procedure: as §3, §4

[14] = tested on: HUVEC; assay: Cell viability after hypothermia-rewarming stress (Neutral Red); format: cell-based, Human; conditions: 10 μM for 1 hour, 4° C. for 24 hours followed by 37° C. for 3 hours
Procedure: as §3
HUVEC were pre-treated with BN-80933, SUL-138 or SUL-150 (all 10 μM) for 1 hour in a humidified incubator at 37° C. Following pre-treatment, HUVEC were placed in a cold room (2-8° C.) for 24 hours and subsequently placed back at 37° C. for a 3 hour rewarming period. After 1 hour of rewarming, cell culture medium was replaced by prewarmed and filtered 0.4 mg/mL Neutral Red (#N463 8, Sigma-Aldrich) in culture medium. After the remaining 2 hour rewarming period, HUVEC were washed with PBS and NRU was solubilized in 100 μL resorption solution (50% ethanol, 1% ascetic acid in dH2O). The absorbance was measured at a wavelength of 550 nm on a BioTek ELx808 plate reader. The recorded OD550 nm values were normalized to control samples that were maintained at 37° C. at all times, which were assumed to be 100% viable.

[15] = 10 μM pre-treatment, LPS 100 ng/ml for 24 hours

Compound | inhibition of LPS-induced mRNA expression of IL-6 [1] | inhibition of LPS-induced mRNA expression of IL-1β [2] | inhibition of LPS-induced mRNA expression of TNFα [3] | inhibition of LPS-induced mRNA expression of IL-1β [4] | inhibition of LPS-induced mRNA expression of TNFα [5] | inhibition of LPS-induced mRNA expression of IL-6 [6] | other results
Cc1c(C)c2c(c(C)c1O)CCC(C)(C(=O)N[C@H](CO)c1ccccc1)O2 (stereo partly drawn) [SUL-129, 6-hydroxy-N-[(1S)-2-hydroxy-1-phenylethyl]-2,5,7,8-tetramethyl-3,4-dihydro-2H-1-benzopyran-2-carboxamide] | 69.2 ± 2.6 % | 75.9 ± 7.1 % | 75.6 ± 6.4 % |  |  |  | 
Cc1c(C)c2c(c(C)c1O)CC[C@@](C)(C(=O)N[C@@H]1CCCNC1)O2 [SUL-13, (2S)-6-hydroxy-2,5,7,8-tetramethyl-N-((R)-piperidin-3-yl)-3,4-dihydro-1-benzopyran-2-carboxamide] |  |  |  | 38.6 ± 4.2 % | 41.2 ± 8.2 % | 45.7 ± 9.1 % | 
Cc1c(C)c2c(c(C)c1O)CC[C@@](C)(C(=O)N1CCN(c3ccc(NC(=N)c4cccs4)cc3)CC1)O2 [BN-80933, reference compound] |  |  |  |  |  |  | nitrate levels in the conditioned medium after LPS [7, 15]: 90 pmol/mg protein; suppression of basal endothelial NO production (nitrate in conditioned medium) ([7]; no LPS, 10 μM): ~38%; LPS-induced increase in extracellular nitrate level [8, 15]: blunted the LPS-induced increase in extracellular nitrate level; basal production of extracellular nitrate ([8]; no LPS, 10 μM): Neither BN-80933, SUL-138, nor SUL-150 affected the basal production of extracellular nitrate; LPS-induced mRNA expression of IL-6 [9]: does not preclude the LPS-induced mRNA expression of the interleukins IL-1β and IL-6; LPS-induced mitochondrial oxidative stress (MitoSox) [10]: not affected by the pre-treatment with BN-80933; LPS-induced mRNA expression of TNFα [11]: precludes the induction of mRNA expression of the pro-inflammatory cytokine TNFα; LPS-induced cytoplasmic oxidative stress (DHE) [12]: mitigates the induction of cytoplasmic oxidative stress; LPS-induced mRNA expression of IL-1β [13]: does not preclude the LPS-induced mRNA expression of the interleukins IL-1β and IL-6; reduction in cell viability versus normothermic control cells [14]: ~55%
COC(=O)CNC(=O)C1(C)CCc2c(C)c(O)c(C)c(C)c2O1 (stereo not shown) [SUL-99, methyl [(6-hydroxy-2,5,7,8-tetramethyl-3,4-dihydro-2H-1-benzopyran-2-carbonyl)amino]acetate, reference compound] |  |  |  | 31.5 ± 4.5 % | 35.1 ± 6.2 % | 32.7 ± 8.1 % | 
Cc1c(C)c2c(c(C)c1O)CCC(C)(C(=O)Nc1ccccc1)O2 (stereo not shown) [SUL-103, 6-hydroxy-2,5,7,8-tetramethyl-N-phenyl-3,4-dihydro-2H-1-benzopyran-2-carboxamide] | 63.3 ± 1.4 % | 59.2 ± 7.9 % | 67.8 ± 7.8 % |  |  |  | 
Cc1c(C)c2c(c(C)c1O)CCC(C)(C(=O)NCc1ccccc1)O2 (stereo not shown) [SUL-96, N-benzyl-6-hydroxy-2,5,7,8-tetramethyl-3,4-dihydro-2H-1-benzopyran-2-carboxamide] | 89.9 ± 5.8 % | 81.7 ± 7.2 % | 85.4 ± 4.7 % |  |  |  | 
Cc1c(C)c2c(c(C)c1O)CCC(C)(C(N)=O)O2 (stereo not shown) [SUL-89, 6-hydroxy-2,5,7,8-tetramethyl-3,4-dihydro-2H-1-benzopyran-2-carboxamide, reference compound] | 8.7 ± 4.6% | 12.3 ± 6.4% | 17.5 ± 3.4% |  |  |  | 
Cc1c(C)c(O)c(CC[C@@](C)(O)C(=O)N2CCN(CCO)CC2)c(C)c1O [SUL-138M2, 4-(2,5-dihydroxy-3,4,6-trimethylphenyl)-2-hydroxy-1-(4-(2-hydroxyethyl)piperazin-1-yl)-2-methylbutan-1-one] |  |  |  | 51.7 ± 8.0 % | 58.1 ± 3.1 % | 55.2 ± 8.5 % | 
